Measurements from patent US7662822B2, “Substituted azaquinazolines having an antiviral action” (Bayer Schering Pharma Aktiengesellschaft, priority 2004, dated 2010).
pEC50: −log10 of the molar value. Counter-ions that a name gives are not always drawn. Like-named read-outs stand apart in the source and are kept apart here.

How the values were obtained:
[1] = Anti-HCMV cytopathogenicity test: cytostatic effect on NHDF cells; assay type: cell-based; conditions: human, human prepuce fibroblasts (NHDF cells), 6 days incubation, visual assessment
Description: (§1) Anti-HCMV (Anti-Human Cytomegalovirus) Cytopathogenicity Tests
(§2) The test compounds are employed as 50 millimolar (mM) solutions in dimethyl sulphoxide (DMSO). Ganciclovir®, Foscarnet® and Cidofovir® are used as reference compounds. After addition of in each case 2 μl of the 50, 5, 0.5 and 0.05 mM DMSO stock solutions to 98 μl portions of cell culture medium in row 2 A-H for duplicate determinations, 1:2 dilutions are carried out with 50 μl portions of medium up to row 11 of the 96-well plate. The wells in rows 1 and 12 each contain 50 μl of medium. 150 μl of a suspension of 1×10^4 cells (human prepuce fibroblasts [NHDF]) are then pipetted into each of the wells (row 1=cell control) and, in rows 2-12, a mixture of HCMV-infected and uninfected NHDF cells (M.O.I.=0.001−0.002), i.e. 1-2 infected cells per 1000 uninfected cells. Row 12 (without substance) serves as virus control. The final test concentrations are 250-0.0005 μM. The plates are incubated at 37° C./5% CO2 for 6 days, i.e. until all the cells are infected in the virus controls (100% cytopathogenic effect [CPE]). The wells are then fixed and stained by adding a mixture of formalin and Giemsa's dye (30 minutes), washed with double-distilled water and dried in a drying oven at 50° C. The plates are then assessed visually using an overhead microscope (plaque multiplier from Technomara).
(§3) The following data can be acquired from the test plates:
CC50 (NHDF)=substance concentration in μM at which no visible cytostatic effects on the cells are evident by comparison with the untreated cell control;

[2] = system: HCMV (human cytomegalovirus); test: Anti-HCMV cytopathogenicity test: inhibition of CPE; assay type: cell-based; conditions: for pEC50: read-out: HCMV EC50
Description: as §1, §2, §3
EC50 (HCMV)=substance concentration in μM which inhibits the CPE (cytopathic effect) by 50% compared with the untreated virus control;
SI (selectivity index)=CC50 (NHDF)/EC50 (HCMV).

[3] = Human betaherpesvirus 5, 144 h, HCMV-infected NHDF cells, M.O.I. 0.001-0.002, 6 days, inhibition of CPE by 50%

| Compound | CC50 at 6 days [1] | SI HCMV (selectivity index = CC50 (NHDF)/EC50 (HCMV)) [2] | pEC50 ([2]; Human betaherpesvirus 5, NHDF, 144 h) | pEC50 [2, 3] |
| --- | --- | --- | --- | --- |
| COc1cccc(N2CCN(C3=Nc4cnccc4C(CC(=O)O)N3c3cccc(C(F)(F)F)c3)CC2)c1 (stereo not drawn) [Example 4, {2-[4-(3-Methoxyphenyl)piperazin-1-yl]-3-[3-(trifluoromethyl)phenyl]-3,4-dihydropyrido[3,4-d]-pyrimidin-4-yl}acetic acid hydrochloride] | 94 µM | 470 | 6.70 |  |
| COc1ccc(C)cc1N1C(N2CCN(c3ccc(F)cc3)CC2)=Nc2ccncc2C1CC(=O)O (stereo not drawn) [Example 8, [2-[4-(4-Fluorophenyl)piperazin-1-yl]-3-(2-methoxy-5-methylphenyl)-3,4-dihydropyrido[4,3-d]-pyrimidin-4-yl] acetic acid] | 250 µM | 1786 |  | 6.85 |
| COc1ccc(C(F)(F)F)cc1N1C(N2CCN(c3ccc(F)cc3)CC2)=Nc2ccncc2C1CC(=O)O (stereo not drawn) [Example 9, {2-[4-(4-Fluorophenyl)piperazin-1-yl]-3-[2-methoxy-5-(trifluoromethyl)phenyl]-3,4-dihydro-pyrido[4,3-d]pyrimidin-4-yl}acetic acid] | 94 µM | 1880 |  | 7.30 |
